Measurements as given in patent US12343335B2, “Pharmaceutical composition for treating multiple sclerosis on basis of AMPK inhibitory function and zinc homeostasis control function” (ZINCURE CORP., priority 2019, dated 2025).

What was measured:
mouse cortical neurons [1] = assay: Apoptosis by etoposide (ETPS) in cortical neurons, LDH cytotoxicity; format: cell-based; settings: etoposide 10 μM for 20 hours, compound 20 μM
Protocol: (§1) The mouse cortical neurons used in the present invention were extracted from the brain of a mouse embryo, and cultured in Dulbecco's modified Eagle's medium (DMEM, Gibco, Grand Island, NY, US) supplemented with 5% fetal bovine serum (FBS) and 5% horse serum (HS) under the condition of 95% humidity, 5% CO2 and 37° C. For activation and differentiation of the cells, the cells were grown to a density of 2×10^4 cells in a 24-well tissue culture plate and cultured in MEM medium without FBS and HS before treatment with zinc and compounds.
The present inventors investigated the inhibitory effect against neuronal cell death of the eight drugs and 1H10 of the above examples. Specifically, neurotoxicity due to apoptosis was induced by treatment with etoposide (ETPS, 10 μM) in mouse cortical neurons for 20 hours. Then, the selected 8 drugs and 1H10 were treated (20 μM) and LDH cytotoxicity was observed.

mouse cortical neurons [2] = assay: Excitotoxicity by NMDA in cortical neurons; format: cell-based; settings: NMDA 50 μM for 3 hours
Protocol: as §1
The present inventors investigated the inhibitory effect against excitotoxicity of the eight drugs and 1H10 of the above examples. Specifically, excitotoxicity was induced by treatment with NMDA (N-methyl-D-aspartate, 50 μM) in mouse cortical neurons for 3 hours.

mouse cortical neurons [3] = assay: Oxidative stress by H2O2 in cortical neurons, LDH analysis; format: cell-based; settings: H2O2 100 μM about 4 hours, compound 20 μM
Protocol: as §1
(§2) The present inventors investigated the inhibitory effect against oxidative stress in addition to zinc toxicity for the eight drugs and 1H10 of the above examples. Specifically, oxidative damage induced neurotoxicity by treating mouse cortical neurons with H2O2 (100 μM) and FeCl2 (100 μM) for about 4 hours and 20 hours, respectively, and treatment with the 8 selected drugs and 1H10 (20 μM). Thereafter, cytotoxicity was observed through LDH (Lactate Dehydrogenase) analysis.

[4] = test system: cortical neurons of the cultured mice; assay: Zinc toxicity in cortical neurons, cell viability assay (Cell Counting Kit-8); format: cell-based, mouse; settings: ZnCl2 400 μM for 10 minutes, compound 20 μM
Protocol: as §1
According to an embodiment of the present invention, based on the structural similarity of 1H10 of the present invention, 25 similar compounds having a similar structure were purchased from a compound library manufacturer (InterBioScreen, Russia; Akos, Germany). Then, in order to induce zinc toxicity in the cortical neurons of the cultured mice, ZnCl2 (400 μM) was treated for 10 minutes, and after 12.5 hours, the selected 25 compounds and the previously selected drug 1H10 were treated (20 μM) and it was determined whether cell death was inhibited through cell viability assay (Cell Counting Kit-8, Dojindo).

[5] = test system: mouse cortical neuron culture; assay: Intrinsic toxicity in cortical neuron culture, LDH cytotoxicity; format: cell-based; settings: 40 μM; for intrinsic toxicity in words: 48 hours of drug treatment
Protocol: as §1
Specifically, 40 μM of each of the drugs was treated in a mouse cortical neuron culture, and LDH cytotoxicity was observed after 24 or 48 hours.

mouse cortical neurons [6] = assay: Oxidative damage by iron (FeCl2) in cortical neurons, LDH analysis; format: cell-based; settings: FeCl2 100 μM about 20 hours, compound 20 μM
Protocol: as §1, §2

EAE = settings: zinc chelator administrated to EAE animals; cited from earlier work
[7] = Zinc chelation in a test tube with FluoZin-3; format: binding; settings: 1 μM zinc, 5 μM FluoZin-3, compared with 1H10
Protocol: The present inventors treated FluoZin-3, a substance illuminate fluorescence if it bind to free zinc to cultivated neurons in order to verify the possibility of zinc chelation according to the treatment of 1H10 {(Z)-5-((1H-indol-3-yl)methylene)-2-((3-hydroxyphenyl)amino)thiazol-4(5H)-one} according to an embodiment of the present invention, and then measured cytosolic zinc level in the neurons for 60 min after exposing zinc (300 μM) for 15 minutes and removing the zinc. In addition, 20 μM zinc (ZnCl2) and NewPort Green DCF fluorophore, which emits fluorescence when it bind to zinc, were added to the test tube, and 1H10 of the present invention was treated at various concentrations. Clioquinol, a zinc chelator, and calcium ionophore Phosphorus ionomycin was used as controls.
In addition, after reacting various concentrations of (0, 0.5, 1, 2, 5, 10, 20, 40 μM) 1H10 or clioquinol with 1 μM zinc and 5 μM fluorescent labeled drug for free zinc (FluoZin-3) in a test tube and fluorescence values were measured. […] 1H10 of the present invention binds zinc even at a lower concentration than clioquinol, but at a high concentration, zinc binding strength is considered to be lower than that of clioquinol (FIG. 5B).

SMILES	inhibitory effect against ETPS toxicity (LDH) (mouse cortical neurons [1])	inhibition of excitotoxicity caused by NMDA (mouse cortical neurons [2])	inhibition of H2O2 toxicity (LDH) (mouse cortical neurons [3])	neuroprotective effect against zinc toxicity (cell viability) [4]	intrinsic toxicity in words [5]	intrinsic toxicity compared with 1H10 ([5]; 24 or 48 hours (time not specified))	inhibition of oxidative damage caused by iron (LDH) (mouse cortical neurons [6])	T cell infiltration that cause encephalitis (EAE)	demyelination and microglia activity in EAE (EAE)	final FluoZin-3 fluorescence value [7]
Cc1ccc(NC2=NC(=O)/C(=C/c3c[nH]c4ccccc34)S2)cc1C [4B01, (5Z)-2-[(3,4-Dimethylphenyl)amino]-5-(1H-indol-3-ylmethylene)-1,3-thiazol-4(5H)-one]	significant inhibitory effect	significantly inhibited	significantly inhibit	neuroprotective effect	stronger intrinsic toxicity than 1H10					
Cc1cccc(NC2=NC(=O)/C(=C/c3c[nH]c4ccccc34)S2)c1C [4B04, (5Z)-2-[(2,3-Dimethylphenyl)amino]-5-(1H-indol-3-ylmethylene)-1,3-thiazol-4(5H)-one]			significantly inhibit	neuroprotective effect						
CCCCc1ccc(NC2=NC(=O)/C(=C/c3c[nH]c4ccccc34)S2)cc1 [4C01, (Z)-5-((1H-indol-3-yl)methylene)-2-((4-butylphenyl)amino)thiazol-4(5H)-one]	significant inhibitory effect	significantly inhibited	significantly inhibit	neuroprotective effect		insignificant difference from 1H10				
Cc1ccc(/N=C2\NC(=O)/C(=C/c3c(C)[nH]c4ccccc34)S2)cc1 [4C03, (2E,5Z)-5-((2-methyl-1H-indol-3-yl)methylene)-2-(p-tolylimino)thiazolidin-4-one]		significantly inhibited	significantly inhibit	neuroprotective effect						
Cc1ccc(/N=C2/NC(=O)/C(=C\c3c(C)[nH]c4ccccc34)S2)cc1 [4C04, (2Z,5E)-5-((2-methyl-1H-indol-3-yl)methylene)-2-(p-tolylimino)thiazolidin-4-one]		significantly inhibited	significantly inhibit	neuroprotective effect						
O=C1N=C(Nc2ccccc2C(=O)O)S/C1=C/c1c[nH]c2ccccc12 [4C06, (E)-2-((5-((1H-indol-3-yl)methylene)-4-oxo-4,5-dihydrothiazol-2-yl)amino)benzoic acid]	significant inhibitory effect			neuroprotective effect						
O=C1N=C(Nc2ccc(O)c(C(=O)O)c2)S/C1=C\c1c[nH]c2ccccc12 [4C08, (Z)-5-((5-((1H-indol-3-yl)methylene)-4-oxo-4,5-dihydrothiazol-2-yl)amino)-2-hydroxy benzoic acid]	significant inhibitory effect	significantly inhibited		neuroprotective effect	did not show intrinsic toxicity		inhibited			
Oc1c(I)cc(Cl)c2cccnc12 [clioquinol]								inhibitored	reduced	lower
